Results from US20060160814A1, “Phosphodiesterase 10 inhibitors” (priority 2004, published 2006).
Structures can show the parent of a compound that is named as a salt.

melting point: 210 to 212 °C (dec.)
SMILES: COc1cc2nncc(C(C#N)C3=NC(C)(C)CN3C(C)C)c2cc1OC (stereo not shown) (as salt: hydrochloride) [Compound 110, (4,5-Dihydro-4,4-dimethyl-1-isopropyl-1H-imidazol-2-yl) (6,7-dimethoxycinnolin-4-yl)-acetonitrile hydrochloride]
